Patent US8710061B2, “Compounds for the reduction of β-amyloid production” (Bristol-Myers Squibb Company, priority 2011, dated 2014)

What follows are molecules tested on Aβ42 production in H4 APP751 SWE clone 8.20 cells (assay: Cellular assay for inhibition of Aβ1-42 production). Details: 19 h incubation, read-out: Activity Rating (Aβ42 cellular IC50), class symbol.
Type: cell-based
Experimental: Cellular Assays for Inhibition of Aβ1-40 and Aβ1-42 Production
H4 cells stably transfected with APP751 containing the Swedish mutation (H4 APP751 SWE clone 8.20, developed at BMS) were maintained in log phase through twice weekly passage at a 1:20 split. […] Following incubation for 19 h in 5% CO2 at 37° C., plates were briefly centrifuged (1000 rpm, 5 min). A 10 μl aliquot from each well was transferred to a second assay plate (Costar 3709) for Aβ40 measurements. Antibody cocktails were freshly prepared by dilution into 40 mM Tris-HCl (pH 7.4) with 0.2% BSA and added to assay plates. For Aβ42 measurements, antibodies specific for the Aβ42 neoepitope (565, developed at BMS; conjugated to the Wallac reagent (Perkin Elmer)) and the N-terminal sequence of Aβ peptide (26D6, developed at SIBIA; conjugated to […] (Perkin Elmer)) were mixed and 20 μl of the mixture was added to each well of the incubated cell plate yielding a final concentration of 0.8 ng/well 565 and 75 ng/well 26D6. For the Aβ40 measurements, antibodies specific for the Aβ40 neoepitope (TSD, developed at BMS; conjugated to the Wallac reagent (Perkin Elmer)) and 26D6 as described above were mixed and 20 μl of the mixture was added to the 10 μl aliquots which had been removed previously from the cell plate yielding a final concentration of 1.6 ng/well TSD and 17.5 ng/well 26D6. Assay plates containing antibodies were sealed with aluminum foil and incubated overnight at 4° C. Signal was determined using a Viewlux counter (Perkin Elmer) and IC50 values determined using curve fitting in CurveMaster (Excel Fit based).
For CNc1nc(Nc2ccc(C#N)c(OC)c2)nc2c1CCC2c1cccc(OC)c1 (racemic) [Example 7, 2-methoxy-4-(7-(3-methoxyphenyl)-4-(methylamino)-6,7-dihydro-5H-cyclopenta[d]pyrimidin-2-ylamino)benzonitrile], the IC50 was 10 to 100 nM. For CNc1nc(Nc2ccc(C#N)c(OC)c2)nc2c1CC[C@H]2c1ccccc1Cl (single isomer, unassigned) [Example 3A], the IC50 was 1.5 to 9.9 nM. CNc1nc(Nc2ccc(C#N)c(OC)c2)nc2c1CC[C@H]2c1ccccc1F (single isomer, unassigned) [Example 4A] gave an IC50 of 10 to 100 nM. Molecule CNc1nc(Nc2ccc(C#N)c(OC)c2)nc2c1CC[C@H]2c1ccc(Cl)cc1F (single isomer, unassigned) [Example 6A] has an IC50 of 10 to 100 nM. CNc1nc(Nc2ccc(C#N)c(OC)c2)nc2c1CC[C@@H]2c1ccccc1OC [Example 1B, (R)-2-methoxy-4-(7-(2-methoxyphenyl)-4-(methylamino)-6,7-dihydro-5H-cyclopenta[d]pyrimidin-2-ylamino)benzonitrile] showed an IC50 of 10 to 100 nM. For CNc1nc(Nc2ccc(C#N)c(OC)c2)nc2c1CC[C@]2(C)c1ccc(F)cc1 [Example 2B, (R)-4-(7-(4-fluorophenyl)-7-methyl-4-(methylamino)-6,7-dihydro-5H-cyclopenta[d]pyrimidin-2-ylamino)-2-methoxybenzonitrile], the IC50 was 100 to 1000 nM. For CNc1nc(Nc2ccc(C#N)c(OC)c2)nc2c1CCC2c1ccc(C(F)(F)F)cc1F (centres unmarked) [Example 8, 4-(7-(2-fluoro-4-(trifluoromethyl)phenyl)-4-(methylamino)-6,7-dihydro-5H-cyclopenta[d]pyrimidin-2-ylamino)-2-methoxybenzonitrile], the IC50 was 10 to 100 nM.

Same assay, conditions: 19 h incubation, read-out: Activity Rating (Aβ42 cellular IC50), given as number
In the case of CNc1nc(Nc2ccc(C#N)c(OC)c2)nc2c1CC[C@H]2c1ccccc1OC (single isomer, unassigned) [Example 1A], the IC50 is reported as 13 nM. CNc1nc(Nc2ccc(C#N)c(OC)c2)nc2c1CC[C@H]2c1c(F)cc(F)cc1F (single isomer, unassigned) [Example 5A] showed an IC50 of 11 nM. Work on CNc1nc(Nc2ccc(C#N)c(OC)c2)nc2c1CC[C@@]2(C)c1ccc(F)cc1 [Example 2A, (S)-4-(7-(4-fluorophenyl)-7-methyl-4-(methylamino)-6,7-dihydro-5H-cyclopenta[d]pyrimidin-2-ylamino)-2-methoxybenzonitrile] yielded an IC50 of 200 nM. CNc1nc(Nc2ccc(C#N)c(OC)c2)nc2c1CCC2c1ccc(OC(F)(F)F)cc1F (centres unmarked) [Example 9, 4-(7-(2-fluoro-4-(trifluoromethoxy)phenyl)-4-(methylamino)-6,7-dihydro-5H-cyclopenta[d]pyrimidin-2-ylamino)-2-methoxybenzonitrile] gave an IC50 of 12 nM.
